Assay results reported in patent US6894185B2, “Substituted chiral allosteric hemoglobin modifiers” (Allós Therapeutics, Inc., priority 1999, dated 2005).
Where “and” joins values, the source holds several entries; their conditions need not be identical. Equal values may be shown once.

Experiments:
[1] = target: T1, purified stripped human adult hemoglobin (Homo sapiens, UniProt P68871+P69905); test: Hemoglobin solution oxygen equilibrium studies (HEMOX-analyzer); type: biochemical; conditions: Table IV; 0.5 mM effector, 100 mM bis-Tris buffer, pH 7.2
T1 construct: using purified stripped human adult hemoglobin as described previously; from tissue

[2] = target: T1, purified stripped human adult hemoglobin; test: as above; type: biochemical; conditions: Table IV, 0.5 mM effector, pH 7.2; for n50 (Hill coefficient at 50% saturation): n50 control 2.7; for P50e/P50c: ratio to P50 control with no effector (5.0 mmHg)
Description: Structure-allosteric activity relationships were determined from the synthetic chiral effectors comparing the shift in the oxygen binding curve of Hb solutions using a Hemox-Analyzer. In vitro biological activity testing in the presence of plasma proteins was also performed on selected enantiomers and racemates (multi-point tonometry and blood gas analysis) to screen for candidates with potential clinical use. SAR studies compared the degree in shift in P50 values, i.e., the partial pressure of molecular oxygen necessary to half-saturate hemoglobin. An effector that decreases Hb oxygen affinity increases the P50 value relative to the control. Thus, the activity or potency of each analog could be expressed by the ratio P50 (effector)/P50(control). […] The slope of the log of the oxygen binding curves is known as the Hill coefficient. The Hill coefficient measures the degree of cooperativity in binding for an allosteric protein, the normal range for human blood is 2.7-3.2.
The effectors were prepared as 10 mM stock solutions in 100 mM NaCl bis-Tris buffer, pH 7.2. After the addition of an excess of NaHCO3, the solution was warmed to 60° C. and stirred for several hours. The solutions were back titrated carefully to pH 7.2 at 25° C. prior to use. Oxygen equilibrium measurements were performed with the HEMOX-analyzer (TCS Medical products, Southampton, Pa.) using purified stripped human adult hemoglobin as described previously. 4 mL of buffer, 100 mM NaCl, 50 mM bis-Tris at pH 7.2, is added to a cuvette in the HEMOX, followed by 200 μL of the 10 mM effector stock solution. Hemoglobin is then added to achieve a final Hb concentration of […] on heme basis. Catalase (20 μg/mL) and 50 mM EDTA were added to limit oxidation of the hemes. […] The saturation of hemoglobin was determined spectrophotometrically with a dual wavelength spectrophotometer (577 nm and 586.2 nm). The solution was stirred constantly during the 45-60 min recordings. The P50 and n50 values were calculated by linear regression analysis from data points comprised between 40 and 60% oxygen saturation.

[3] = target: T2, hemoglobin (Homo sapiens, UniProt P68871+P69905); test: In vitro whole blood studies (multi-point tonometry and blood gas analysis); type: cell-based; conditions: for ΔP50 ± S.D. (P50 effector − P50control) / P50e (P50 value in the presence of the effector): Table VI, 2.5 mM Hb, 5.0 mM effector; for P50e (P50 value in the presence of the effector): single runs, DMSO stock
T2 construct: The whole blood samples were collected in heparinized tubes from healthy volunteers; from tissue; host or cells: human whole blood (heparinized) from healthy volunteers
Description: Structure-allosteric activity relationships were determined from the synthetic chiral effectors comparing the shift in the oxygen binding curve of Hb solutions using a Hemox-Analyzer. In vitro biological activity testing in the presence of plasma proteins was also performed on selected enantiomers and racemates (multi-point tonometry and blood gas analysis) to screen for candidates with potential clinical use. SAR studies compared the degree in shift in P50 values, i.e., the partial pressure of molecular oxygen necessary to half-saturate hemoglobin. An effector that decreases Hb oxygen affinity increases the P50 value relative to the control. Thus, the activity or potency of each analog could be expressed by the ratio P50 (effector)/P50(control). Tables and II and III summarize the p50 values obtained using human whole blood, while Tables IV and V summarize the P50 and the Hill coefficient values (n50) at half-saturation obtained using Hemox-analyzer. The slope of the log of the oxygen binding curves is known as the Hill coefficient. The Hill coefficient measures the degree of cooperativity in binding for an allosteric protein, the normal range for human blood is 2.7-3.2. Table VI presents the results from the whole blood studies given as a ΔP50 and Hill coefficient (n50) values for the enantiomers and racemates.
The whole blood samples were collected in heparinized tubes from healthy volunteers and stored over ice. The sodium salts of the compounds were prepared as described earlier. A 200 mM stock solution of the effector was prepared in DMSO. A 5.0 mM test solution was prepared from 50 μL of the 200 mM test solution and 1950 μL of whole blood. The blood samples were incubated in IL 237 tonometers (Instrumentation Laboratories, Inc. Lexington, Mass.) for approximately 10-12 min at 37° C. and equilibrated at three separate concentrations of O2 (20%, 40%, and 60%). After equilibration at each concentration of O2, a sample was removed via syringe and aspirated into a IL 1420 Automated Blood Gas Analyzer (Instrumentation Laboratories, Inc. Lexington, Mass.) and a IL 482 and IL 682 Co-oximeter (Instrumentation Laboratories, Inc. Lexington, Mass.) to determine the pH, pCO2, pO2 and the hemoglobin oxygen saturation values (sO2), respectively. The measured values for pO2 and sO2 at each oxygen saturation level were then subjected to a non-linear regression analysis using the program Scientist (Micromath, Salt Lake City, Utah) to calculate the P50 and Hill coefficient values.

T1 sequence (P69905 2-142 limits assumed): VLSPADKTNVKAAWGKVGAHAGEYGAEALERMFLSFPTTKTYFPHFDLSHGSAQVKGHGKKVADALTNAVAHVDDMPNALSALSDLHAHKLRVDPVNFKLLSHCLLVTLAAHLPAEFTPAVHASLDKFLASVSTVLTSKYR
T1 sequence (P68871 2-147 limits assumed): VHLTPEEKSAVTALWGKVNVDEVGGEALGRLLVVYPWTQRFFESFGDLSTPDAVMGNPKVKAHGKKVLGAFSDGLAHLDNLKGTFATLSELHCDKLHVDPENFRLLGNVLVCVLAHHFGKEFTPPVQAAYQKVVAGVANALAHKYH
T2 sequence (P69905 2-142 limits assumed): as the sequence (P69905 2-142 limits assumed) above
T2 sequence (P68871 2-147 limits assumed): as the sequence (P68871 2-147 limits assumed) above

| SMILES | melting point [°C] | Whole Blood Δp50 mm Hg ([3]; Table III) [mm Hg] | also measured |
| --- | --- | --- | --- |
| Cc1cc(Cl)cc(NC(=O)Cc2ccc(OC3(C(=O)O)CCC(C)C3)cc2)c1 (centres unmarked) [Compound 9, 1-[4-[[(3-chloro-5-methylanilino)carbonyl]methyl]phenoxy]-3-methylcyclopentane carboxylic acid] |  |  | P50e (oxygen pressure at which Hb is 50% saturated with oxygen in the presence of the effector) [1]: 14 mmHg; n50 (Hill coefficient at 50% saturation) [2]: 2.4; P50e/P50c [2]: 2.8; Whole Blood Δp50 mm Hg ([3]; Table II): 15 mm Hg |
| COCC(C)(Oc1ccc(CC(=O)Nc2cc(C)cc(C)c2)cc1)C(=O)O (centres unmarked) [Compound 10, 2-[4-[[(3,5-dimethylanilino)carbonyl]methyl]phenoxy]-3-methoxy-2-methylpropanoic acid] |  |  | P50e (oxygen pressure at which Hb is 50% saturated with oxygen in the presence of the effector) [1]: 8.4 mmHg; n50 (Hill coefficient at 50% saturation) [2]: 2.4; P50e/P50c [2]: 1.7; Whole Blood Δp50 mm Hg ([3]; Table II): 24 mm Hg |
| Cc1cc(C)cc(NC(=O)Cc2ccc(OC3(C(=O)O)CCCC(C)C3)cc2)c1 (centres unmarked) [Compound 11, 1-[4-[[(3,5-dimethylanilino)carbonyl]methyl]phenoxy]-3-methylcyclohexane carboxylic acid] |  |  | P50e (oxygen pressure at which Hb is 50% saturated with oxygen in the presence of the effector) [1]: 10 mmHg; n50 (Hill coefficient at 50% saturation) [2]: 2.5; P50e/P50c [2]: 2.1; Whole Blood Δp50 mm Hg ([3]; Table II): 16 mm Hg |
| Cc1cc(C)cc(NC(=O)Cc2ccc(OC3(C(=O)N[C@@H](C)C(=O)O)CCCC3)cc2)c1 [Compound 39, 1-[4-(((3,5-dimethylanilino)carbonyl)methyl)phenoxy] cyclopentanecarbonyl-L-alanine] | 117 to 118 | 22 |  |
| Cc1cc(C)cc(NC(=O)Cc2ccc(OC3(C(=O)N[C@H](CC(C)C)C(=O)O)CCCC3)cc2)c1 [Compound 40, 1-[4-(((3,5-dimethylanilino)carbonyl)methyl)phenoxy]cyclopentanecarbonyl-D-leucine] | 119 to 120 | 40 |  |
| Cc1cc(C)cc(NC(=O)Cc2ccc(OC3(C(=O)N[C@@H](CC(C)C)C(=O)O)CCCC3)cc2)c1 [Compound 41, 1-[4-(((3,5-dimethylanilino)carbonyl)methyl)phenoxy]cyclopentanecarbonyl-L-leucine] | 119 to 120 | 15 |  |
| Cc1cc(C)cc(NC(=O)Cc2ccc(OC3(C(=O)N[C@H](C(=O)O)C(C)C)CCCC3)cc2)c1 [Compound 43, 1-[4-(((3,5-dimethylanilino)carbonyl)methyl)phenoxy]cyclopentanecarbonyl-L-valine] | 104 to 106 | 30 |  |
| Cc1cc(C)cc(NC(=O)Cc2ccc(OC3(C(=O)N[C@H](Cc4ccccc4)C(=O)O)CCCC3)cc2)c1 [Compound 44, 1-[4-(((3,5-dimethylanilino)carbonyl)methyl)phenoxy]cyclopentanecarbonyl-D-phenylalanine] | 106 to 108 | 38 |  |
| Cc1cc(C)cc(NC(=O)Cc2ccc(OC3(C(=O)N[C@H](Cc4c[nH]c5ccccc45)C(=O)O)CCCC3)cc2)c1 [Compound 46, 1-[4-(((3,5-dimethylanilino)carbonyl)methyl)phenoxy]cyclopentanecarbonyl-D-tryptophan] | 83 to 84 | 20 |  |
| Cc1cc(C)cc(NC(=O)Cc2ccc(OC3(C(=O)N[C@H](CO)C(=O)O)CCCC3)cc2)c1 [Compound 49, 1-[4-(((3,5-dimethylanilino)carbonyl)methyl)phenoxy]cyclopentanecarbonyl-D-serine] | 58 to 59 | 16 |  |
| Cc1cc(C)cc(NC(=O)Cc2ccc(OC3(C(=O)N[C@@H](CO)C(=O)O)CCCC3)cc2)c1 [Compound 50, 1-[4-(((3,5-dimethylanilino)carbonyl)methyl)phenoxy]cyclopentanecarbonyl-L-serine] | 58 to 59 | 5 |  |
| Cc1cc(C)cc(NC(=O)Cc2ccc(OC3(C(=O)O)CCCC3)cc2)c1 [JP7, 1-[4-(((3,5-dimethylanilino)carbonyl)methyl)phenoxy]cyclopentanecarboxylic acid, reference compound] |  |  | P50e (oxygen pressure at which Hb is 50% saturated with oxygen in the presence of the effector) [1]: 26 mmHg; n50 (Hill coefficient at 50% saturation) [2]: 2.4; P50e/P50c [2]: 5.1; ΔP50 ± S.D. (P50 effector − P50control) [3]: 42.3 ± 4.9 mmHg; P50e (P50 value in the presence of the effector) [3]: 74.7 mmHg and 67.7 mmHg |
| Cc1cc(C)cc(NC(=O)Cc2ccc(OC(C)(C)C(=O)O)cc2)c1 [RSR13, reference compound] |  |  | P50e (oxygen pressure at which Hb is 50% saturated with oxygen in the presence of the effector) [1]: 23 mmHg; n50 (Hill coefficient at 50% saturation) [2]: 2.3; P50e/P50c [2]: 4.7; ΔP50 ± S.D. (P50 effector − P50control) [3]: 45.2 ± 2.2 mmHg; P50e (P50 value in the presence of the effector) [3]: 76.5 mmHg and 73.4 mmHg |

The next lines start with results.

| melting point [°C] | Whole Blood Δp50 mm Hg ([3]; Table III) [mm Hg] | SMILES | also measured |
| --- | --- | --- | --- |
| 54 to 55 | 27 | CSCC[C@@H](NC(=O)C1(Oc2ccc(CC(=O)Nc3cc(C)cc(C)c3)cc2)CCCC1)C(=O)O [Compound 51, 1-[4-(((3,5-dimethylanilino)carbonyl)methyl)phenoxy]cyclopentanecarbonyl-D-methionine] |  |
| 127 to 128 | 13 | CC[C@H](C)[C@H](NC(=O)C1(Oc2ccc(CC(=O)Nc3cc(C)cc(C)c3)cc2)CCCC1)C(=O)O [Compound 53, 1-[4-(((3,5-dimethylanilino)carbonyl)methyl)phenoxy]cyclopentanecarbonyl-L-isoleucine] |  |
| 74 to 75 | 21 | Cc1cc(C)cc(NC(=O)Cc2ccc(OC3(C(=O)N[C@@H](Cc4ccc(O)cc4)C(=O)O)CCCC3)cc2)c1 [Compound 54, 1-[4-(((3,5-dimethylanilino)carbonyl)methyl)phenoxy]cyclopentanecarbonyl-L-tyrosine] |  |
| 71 to 72 | 17 | Cc1cc(C)cc(NC(=O)Cc2ccc(OC3(C(=O)N4CCC[C@H]4C(=O)O)CCCC3)cc2)c1 [Compound 56, 1-[4-(((3,5-dimethylanilino)carbonyl)methyl)phenoxy]cyclopentanecarbonyl-L-proline] |  |
| 64 to 66 | 13 | Cc1cc(C)cc(NC(=O)Cc2ccc(OC3(C(=O)N[C@H](C(=O)O)[C@@H](C)O)CCCC3)cc2)c1 [Compound 58, 1-[4-(((3,5-dimethylanilino)carbonyl)methyl)phenoxy]cyclopentanecarbonyl-L-threonine] |  |
| 124 to 125 | −0.6 | Cc1cc(C)cc(NC(=O)Cc2ccc(OC3(C(=O)N[C@@H](CCCCN)C(=O)O)CCCC3)cc2)c1 [Compound 62, 1-[4-(((3,5-dimethylanilino)carbonyl)methyl)phenoxy]cyclopentanecarbonyl-L-lysine] |  |
